Earlier results as cited in US11905435B2, “Antimicrobial additive compositions for coatings” (PEGASUS ENVIRONMENTAL RESEARCH AND INVESTMENT GROUP LLC, priority 2020, dated 2024).

Tests used:
enteric bacteria = settings: Bailey et al. [5]
Pityrosporum ovale = settings: Imokawa et al. [6]
[1] = tested on: Saccharomyces cerevisiae yeast; settings: Reeder et al. [7]

Row | Compound | antibacterial effects on enteric bacteria (enteric bacteria) | antifungal effects on Pityrosporum ovale (Pityrosporum ovale) | anti-yeast effect on Saccharomyces cerevisiae [1]
1 | OB(O)O [boric acid] | antibacterial effects | – | –
2 | zinc pyrithione [CP] | – | antifungal effects | anti-yeast effect
